Laboratory results: patent US6440406B1, “Attractant for monitoring and control of adult scarabs” (The United States of America as represented by the …, priority 1997, dated 2002)

Assays:
Format in all cases: in vivo
Cotinis nitida = test: Field trap capture, College Station, TX; conditions: number of incidents over the study where more than one target insect was trapped (male and female, 4 repetitions)
Procedure: (§1) The mixture of all five volatile components, prepared as described in Lopez et al. (U.S. patent application Ser. No. 09/166,655, filed Oct. 5, 1998) was evaluated as an attractant for scarabs. Evaluations using the mixture in traps were conducted at various sites at Dallas, Tex., adjacent to corn or cotton fields in an agricultural area SW of College Station, Tex., and in different habitats at various locations in Mexico. The primary trap used was the Trece Catch Can with a yellow top and a green catch container obtained from Trece, Inc., Salinas, Calif. At College Station only, wire cone traps originally designed to capture noctuid moths (Hartstack et al., Jour. Econ. Entomol., 72:319-322, 1979) were also used in the evaluations. The traps were operated about 1 meter above ground level and were spaced at different distances based on the amount of space available in which to conduct the evaluations. Treatments were assigned to traps in trap lines either randomly or rotated every time the traps were checked to minimize trap location effects. Attractants for evaluation were dispensed primarily from sintered polyethylene to which the attractant was added until saturated. The sintered polyethylene was placed in various plastic containers to facilitate placing on the traps for evaluation. At College Station only, cotton dental wicks were used to dispense the attractants for evaluation by applying the attractants mixed with methylene chloride as a solvent. Traps were checked as appropriate based on the number of numbers of scarabs trapped.
(§2) The volatile components were evaluated individually and in combination for efficacy for capturing scarabs. The evaluations were conducted as described in Example 1 near College Station, Tex., and Dallas, Tex., except that the volatile components were assayed individually as well.
(§3) In the College Station, Tex., data, the numbers represent the frequencies or number of incidents, over the course of the study, where more than one target insect was trapped (male and female, 4 repetitions). The Dallas, Tex., data represents the numbers of males/females captured. Abbreviations for the active agents tested are as follows: Mix M=five component mixture as described in Example 1, MMB=methyl-2-methoxybenzoate, MS=methyl salicylate, PA=phenylacetaldehyde, PE=2-phenylethanol, PEG=Japanese Beetle Lure, and SL=limonene.

Euphoria sedpulcralis = test: Field trap capture, College Station, TX; conditions: number of incidents over the study where more than one target insect was trapped (male and female, 4 repetitions)
Procedure: as §1, §2, §3

Phyllophaga congrua = test: Field trap capture, Dallas, TX; conditions: baited traps
Procedure: as §1, §2, §3

Phyllophaga crassissima = test: Field trap capture, Dallas, TX; conditions: baited traps
Procedure: as §1, §2, §3

Phyllophaga crinita = test: Field trap capture, Dallas, TX; conditions: baited traps
Procedure: as §1, §2, §3

CC=Cc1ccc(OC)cc1 [Anethol, reference compound]
Frequencies of trapping > 1 beetle (Cotinis nitida): 1 | Frequencies of trapping > 1 beetle (Euphoria sedpulcralis): 0 | no. females captured (Phyllophaga congrua): 3 | no. males captured (Phyllophaga congrua): 0 | no. females captured (Phyllophaga crassissima): 56 | no. males captured (Phyllophaga crassissima): 79 | no. females captured (Phyllophaga crinita): 0 | no. males captured (Phyllophaga crinita): 14

COC(=O)c1ccccc1OC [MMB, methyl-2-methoxybenzoate]
Frequencies of trapping > 1 beetle (Cotinis nitida): 1 | Frequencies of trapping > 1 beetle (Euphoria sedpulcralis): 0 | no. females captured (Phyllophaga congrua): 3 | no. males captured (Phyllophaga congrua): 0 | no. females captured (Phyllophaga crassissima): 11 | no. males captured (Phyllophaga crassissima): 16 | no. females captured (Phyllophaga crinita): 7 | no. males captured (Phyllophaga crinita): 8627

COC(=O)c1ccccc1O [MS, methyl salicylate]
Frequencies of trapping > 1 beetle (Cotinis nitida): 0 | Frequencies of trapping > 1 beetle (Euphoria sedpulcralis): 0 | no. females captured (Phyllophaga congrua): 0 | no. males captured (Phyllophaga congrua): 4 | no. females captured (Phyllophaga crassissima): 10 | no. males captured (Phyllophaga crassissima): 6 | no. females captured (Phyllophaga crinita): 0 | no. males captured (Phyllophaga crinita): 23

O=CCc1ccccc1 [PA, phenylacetaldehyde]
Frequencies of trapping > 1 beetle (Cotinis nitida): 13 | Frequencies of trapping > 1 beetle (Euphoria sedpulcralis): 1 | no. females captured (Phyllophaga congrua): 1 | no. males captured (Phyllophaga congrua): 5 | no. females captured (Phyllophaga crassissima): 3 | no. males captured (Phyllophaga crassissima): 9 | no. females captured (Phyllophaga crinita): 1 | no. males captured (Phyllophaga crinita): 16

OCCc1ccccc1 [PE, 2-phenylethanol]
Frequencies of trapping > 1 beetle (Cotinis nitida): 2 | Frequencies of trapping > 1 beetle (Euphoria sedpulcralis): 0 | no. females captured (Phyllophaga congrua): 2 | no. males captured (Phyllophaga congrua): 5 | no. females captured (Phyllophaga crassissima): 5 | no. males captured (Phyllophaga crassissima): 8 | no. females captured (Phyllophaga crinita): 1 | no. males captured (Phyllophaga crinita): 11

C=C(C)[C@H]1CC=C(C)CC1 [SL, limonene]
Frequencies of trapping > 1 beetle (Cotinis nitida): 0 | Frequencies of trapping > 1 beetle (Euphoria sedpulcralis): 0 | no. females captured (Phyllophaga congrua): 2 | no. males captured (Phyllophaga congrua): 1 | no. females captured (Phyllophaga crassissima): 3 | no. males captured (Phyllophaga crassissima): 4 | no. females captured (Phyllophaga crinita): 3 | no. males captured (Phyllophaga crinita): 32
